The target in this experiment is human ATX (Homo sapiens (Human), UniProt Q13822). Kind of experiment: Human ATX enzyme inhibition assay (fluorescence quenching, MR121 substrate). In kind it is biochemical. Particulars: human His-tagged ATX 30 nM, MR121 substrate 1 μM, 30° C. The method, boiled down: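 Human His-tagged ATX (30 nM final) preincubated 15 min at 30 °C with serially diluted compounds in Tris buffer pH 8.0 with Ca2+, Mg2+ and 0.01% Triton X-100. MR121/tryptophan-labelled substrate analogue (1 μM final) then added for 15 min at 30 °C; cleavage read by fluorescence dequenching.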
Regarding `Cc1cc(OCc2n[nH]c3ncccc23)c(-c2cccc(C(=O)NCCO)c2)cc1Cl` [Example D19], it took 35 nM to reach half-maximal inhibition (IC50). The figure for `COc1ncccc1-c1cc(Cl)c(C)cc1OCc1n[nH]c2ncccc12` [Example D20] is 22 nM; for `Cc1cc(OCc2n[nH]c3ncccc23)c(-c2cc(C(=O)N(C)C)ccc2F)cc1Cl` [Example D21] it is 9 nM; for `Cc1cc(OCc2n[nH]c3ncccc23)c(-c2cc(C(=O)N3CCOCC3)ccc2F)cc1Cl` [Example D22] it is 10 nM.

Consider `Cc1cc(OCc2n[nH]c3cccnc23)c(C(C)(C)C)cc1Cl` [Example D23], for which half-maximal inhibition (IC50) was put at 21 nM. The result for `Cc1cc(OCc2n[nH]c3cccnc23)c(-c2cccc(C(=O)N(C)C)c2)cc1Cl` [Example D24] reads 99 nM. As to `CC(C)(C)c1cc(Cl)c(F)cc1OCc1n[nH]c2cccnc12` [Example D25], 18 nM corresponded to half-maximal inhibition (IC50). The result for `Cc1cc(OCc2n[nH]c3nc(N(C)CCO)ncc23)c(C(C)(C)C)cc1Cl` [Example D26, 2-[[3-[(2-tert-Butyl-4-chloro-5-methylphenoxy)methyl]-1H-pyrazolo[3,4-d]pyrimidin-6-yl]-methylamino]ethanol] reads 14 nM. For `Cc1cc(OCc2n[nH]c3nc(N(C)CC(O)CO)ncc23)c(C(C)(C)C)cc1Cl` (stereo not drawn) [Example D27], 8 nM corresponded to half-maximal inhibition (IC50).

Regarding `Cc1cc(OCc2n[nH]c3cccnc23)c(-c2cc(C(=O)N(C)C)ccc2F)cc1Cl` [Example D28], 98 nM corresponded to half-maximal inhibition (IC50). The result for `Cc1cc(OCc2n[nH]c3nc(N4CC(O)C4)ncc23)c(C(C)(C)C)cc1Cl` [Example D29] reads 10 nM; that for `Cc1cc(OCc2n[nH]c3nc(NCCO)ncc23)c(C(C)(C)C)cc1Cl` [Example D30], 9 nM; that for `Cc1cc(OCc2n[nH]c3nc(OCCO)ncc23)c(C(C)(C)C)cc1Cl` [Example D31, 2-[[3-[(2-tert-Butyl-4-chloro-&-methylphenoxy)methyl]-1H-pyrazolo[3,4-d]pyrimidin-6-yl]oxy]ethanol], 7 nM. As for `Cc1cc(OCc2n[nH]c3nc(N4CC(O)C4)ncc23)c(C(C)(C)C)cc1C#N` [Example D32, 5-tert-Butyl-4-[[6-(3-hydroxyazetidin-1-yl)-1H-pyrazolo[3,4-d]pyrimidin-3-yl]methoxy]-2-methylbenzonitrile], half-maximal inhibition (IC50) required 8 nM. This IC50 and that of the compound before are within 1.5-fold of each other. Regarding `Cc1cc(OCc2n[nH]c3nc(OCC(O)CO)ncc23)c(C(C)(C)C)cc1Cl` (stereo not drawn) [Example D34, 3-[[3-[(2-tert-Butyl-4-chloro-5-methylphenoxy)methyl]-1H-pyrazolo[3,4-d]pyrimidin-6-yl]oxy]propane-1,2-diol], the half-inhibitory concentration (IC50) (in general, the midpoint of a concentration-inhibition curve) worked out at 2 nM. Against the preceding compound, the IC50 is about 4-fold lower.

On to `Cc1cc(OCc2n[nH]c3nc(NCCO)ncc23)c(C(C)(C)C)cc1C#N` [Example D35], for which the IC50 came out at 9 nM.

Turning to `Cc1cc(OCc2n[nH]c3nc(OCC(O)CO)ncc23)c(C(C)(C)C)cc1C#N` (stereo not drawn) [Example D37, 5-tert-Butyl-4-[[6-(2,3-dihydroxypropoxy)-1H-pyrazolo[3,4-d]pyrimidin-3-yl]methoxy]-2-methylbenzonitrile], the IC50 came out at 6 nM. The result for `Cc1cc(OCc2n[nH]c3nc(OCCO)ncc23)c(C(C)(C)C)cc1C#N` [Example D38, 5-tert-Butyl-4-[[6-(2-hydroxyethoxy)-1H-pyrazolo[3,4-d]pyrimidin-3-yl]methoxy]-2-methylbenzonitrile] reads 9 nM. The result for `Cc1cc(OCc2n[nH]c3ncccc23)c(-c2cc(C(=O)N3CCN(C)C(=O)C3)ccc2F)cc1Cl` [Example D39] reads 8 nM; that for `COCCN(C)C(=O)c1ccc(F)c(-c2cc(Cl)c(C)cc2OCc2n[nH]c3ncccc23)c1` [Example D40], 6 nM; that for `Cc1cc(OCc2n[nH]c3ccccc23)c(-c2cc(C(=O)N3CCN(C)C(=O)C3)ccc2F)cc1Cl` [Example D41], 7 nM. The result for `Cc1cc(OCc2n[nH]c3ncccc23)c(-c2cc(C(=O)N3CCCC3)ccc2F)cc1Cl` [Example D42] reads 6 nM; that for `N#Cc1cc(-c2cc(C(=O)N3CCCC3)ccc2F)c(OCc2n[nH]c3ncccc23)cc1Cl` [Example D43], 7 nM; that for `Cc1cc(OCc2n[nH]c3cnccc23)c(-c2cc(C(=O)N3CCN(C)C(=O)C3)ccc2F)cc1Cl` [Example D44, 4-[3-[5-Chloro-4-methyl-2-(1H-pyrazolo[3,4-c]pyridin-3-ylmethoxy)phenyl]-4-fluorobenzoyl]-1-methylpiperazin-2-one], 9 nM. Compound `CC(C)(C)c1cc(S(C)(=O)=O)ccc1OCc1n[nH]c2ncccc12` [Example D45] displayed an IC50 of 23 nM. The figure for `COCCN(C)C(=O)c1ccc(F)c(-c2cc(Cl)c(C)cc2OCc2n[nH]c3cnccc23)c1` [Example D46] is 4 nM; for `COc1ncccc1-c1cc(Cl)c(C)cc1OCc1n[nH]c2cnccc12` [Example D47] it is 11 nM; for `Cc1cc(C(C)(C)C)c(OCc2n[nH]c3ncccc23)cc1C#N` [Example D48] it is 32 nM.

In turn, `Cc1cc(C(C)(C)C)c(OCc2n[nH]c3cnccc23)cc1C#N` [Example D49] showed a half-inhibitory concentration (IC50) of 2 nM. The result for `CC(C)(C)c1cc(Cl)c(C#N)cc1OCc1n[nH]c2cnccc12` [Example D50] reads 1 nM. The figure for `N#Cc1cc(-c2cc(OC3CC3)ccc2F)c(OCc2n[nH]c3cnccc23)cc1Cl` [Example D51] is 69 nM. In turn, `CC(C)(C)c1cc(Cl)c(C#N)cc1OCc1n[nH]c2ncccc12` [Example D52] showed a 50% inhibitory concentration (IC50) of 2 nM. As for `N#Cc1cc(-c2cc(OC3CC3)ccc2F)c(OCc2n[nH]c3ncccc23)cc1Cl` [Example D53], the IC50 worked out at 8 nM.

Compound `N#Cc1cc(-c2cc(OC(F)(F)F)ccc2F)c(OCc2n[nH]c3ccncc23)cc1Cl` [Example D54] yielded an IC50 of 28 nM. The figure for `N#Cc1cc(-c2cc(OC(F)(F)F)ccc2F)c(OCc2n[nH]c3ncccc23)cc1Cl` [Example D55] is 3 nM. The figure for `Cc1cc(OCc2n[nH]c3c2CN(C(=O)OC(C)(C)C)CC3)c(C(C)(C)C)cc1Cl` [Example E1, tert-Butyl 3-((2-tert-butyl-4-chloro-5-methylphenoxy)methyl)-6,7-dihydro-1H-pyrazolo[4,3-c]pyridine-5(4H)-carboxylate] is 746 nM; for `CC(=O)N1CCc2[nH]nc(COc3cc(C)c(Cl)cc3C(C)(C)C)c2C1` [Example E2, 1-(3-((2-tert-Butyl-4-chloro-5-methylphenoxy)methyl)-6,7-dihydro-1H-pyrazolo[4,3-c]pyridin-5(4H)-yl)ethanone] it is 41300 nM. The result for `COCC(=O)N1CCc2[nH]nc(COc3cc(C)c(Cl)cc3C(C)(C)C)c2C1` [Example E3, 1-(3-((2-tert-Butyl-4-chloro-5-methylphenoxy)methyl)-6,7-dihydro-1H-pyrazolo[4,3-c]pyridin-5(4H)-yl)-2-methoxyethanone] reads 80400 nM; that for `Cc1cc(OCc2n[nH]c3c2CCNC3)c(C(C)(C)C)cc1Cl` [Example E4, 3-((2-tert-Butyl-4-chloro-5-methylphenoxy)methyl)-4,5,6,7-tetrahydro-1H-pyrazolo[3,4-c]pyridine], 19 nM. As for `CC(=O)N1CCc2c(COc3cc(C)c(Cl)cc3C(C)(C)C)n[nH]c2C1` [Example E5, 1-(3-((2-tert-Butyl-4-chloro-5-methylphenoxy)methyl)-4,5-dihydro-1H-pyrazolo[3,4-c]pyridin-6(7H)-yl)ethanone], the IC50 is 17 nM.

`COCC(=O)N1CCc2c(COc3cc(C)c(Cl)cc3C(C)(C)C)n[nH]c2C1` [Example E6, 1-(3-((2-tert-Butyl-4-chloro-5-methylphenoxy)methyl)-4,5-dihydro-1H-pyrazolo[3,4-c]pyridin-6(7H)-yl)-2-methoxyethanone] registered an IC50 of 15 nM. The IC50 values of the last two compounds are within 1.5-fold of each other.

`COc1ncccc1-c1cc(Cl)c(C)cc1OCc1n[nH]c2c1CCNC2` [Example E7, 3-((4-Chloro-2-(2-methoxypyridin-3-yl)-5-methylphenoxy)methyl)-4,5,6,7-tetrahydro-1H-pyrazolo[3,4-c]pyridine] displayed an IC50 of 202 nM. On to `COc1ncccc1-c1cc(Cl)c(C)cc1OCc1n[nH]c2c1CCN(C(C)=O)C2` [Example E8, 1-(3-((4-Chloro-2-(2-methoxypyridin-3-yl)-5-methylphenoxy)methyl)-4,5-dihydro-1H-pyrazolo[3,4-c]pyridin-6(7H)-yl)ethanone], for which 69 nM corresponded to half-maximal inhibition (IC50). With `Cc1cc(OCc2cc[nH]n2)c(C(C)(C)C)cc1Cl` [Example F1, 3-((2-tert-Butyl-4-chloro-5-methylphenoxy)methyl)-1H-pyrazole], the IC50 was 27 nM. Compared with the last compound, the IC50 is about 2.6-fold lower. As for `Cc1cc(OCc2cc[nH]n2)c(C(C)(C)C)cc1C#N` [Example F2, 4-((1H-Pyrazol-3-yl)methoxy)-5-tert-butyl-2-methylbenzonitrile], the IC50 amounted to 18 nM. The compound `COC(=O)c1cc(COc2cc(C)c(Cl)cc2C(C)(C)C)n[nH]1` [Example F3, Methyl 3-((2-(tert-butyl)-4-chloro-5-methylphenoxy)methyl)-1H-pyrazole-5-carboxylate] displayed an IC50 of 10 nM. As to `Cc1cc(OCc2cc(C(=O)N3CCCC3)[nH]n2)c(C(C)(C)C)cc1Cl` [Example F4, (3-((2-(tert-Butyl)-4-chloro-5-methylphenoxy)methyl)-1H-pyrazol-5-yl)(pyrrolidin-1-yl)methanone], the half-maximal inhibitory concentration (IC50) is 8 nM. This IC50 and that of the compound before are within 1.5-fold of each other. The compound `Cc1cc(OCc2cc(C(=O)N(C)C)[nH]n2)c(C(C)(C)C)cc1Cl` [Example F5, 3-((2-(tert-Butyl)-4-chloro-5-methylphenoxy)methyl)-N,N-dimethyl-1H-pyrazole-5-carboxamide] showed an IC50 of 15 nM.

These data come from patent US11352330B2, “Phenoxymethyl derivatives” (Hoffmann-La Roche Inc., priority 2015, dated 2022).
